{
  "source": "paper PMC8997913",
  "about": "“Lichen Secondary Metabolites Inhibit the Wnt/β-Catenin Pathway in Glioblastoma Cells and Improve the Anticancer Effects of Temozolomide” (Cells, 2022)",
  "origin": "cited, not measured here",
  "key": {"[1]": {"system": "MDA-MB-231 breast cancer cells", "set-up": "method as in PMID 32096436", "conditions": "MDA-MB-231, ref [31]; read-out: IC50 concentration; cited from earlier work"}, "[2]": {"system": "MCF-7 breast cancer cells", "set-up": "method as in PMID 32096436", "conditions": "MCF-7, ref [31]; read-out: IC50 concentration; cited from earlier work"}, "HeLa cells": {"system": "HeLa cells", "set-up": "method as in PMID 35190352", "conditions": "ref [30]; cited from earlier work"}, "A-172 cells": {"system": "A-172 cells", "conditions": "taken from the literature, ref [5]; read-out: IC50 [uM] ± SEM A-172; cited from earlier work"}},
  "data": [
    {"smiles": "COC(=O)c1c(C)cc(OC(=O)c2c(C)cc(O)c(C=O)c2O)c(C)c1O", "note": "[Atranorin]", "values": [
      {"measurement": "IC50", "setting": "[1]", "result": "5.36 ± 0.85", "unit": "µM"},
      {"measurement": "IC50", "setting": "[2]", "result": "7.55 ± 1.2", "unit": "µM"}
    ]},
    {"smiles": "Cc1cc(OC(=O)c2c(C)cc(O)cc2O)cc(O)c1C(=O)O", "note": "[Lecanoric acid]", "values": [
      {"measurement": "cell cycle distribution", "setting": "HeLa cells", "result": "cell cycle arrest in the G2 phase"}
    ]},
    {"smiles": "Cc1cc(O)c(C=O)c2c1C(=O)Oc1c(CO)c(O)c3c(c1O2)C(O)OC3=O", "note": "(stereo not shown) [Salazinic acid]", "values": [
      {"measurement": "IC50", "setting": "A-172 cells", "result": "> 100", "unit": "µM"}
    ]}
  ]
}
